Experiments:
CDK4/Cyclin D1 = CDK4/Cyclin D1 (Homo sapiens (Human), UniProt P11802); experiment: CDK4/Cyclin D1 Mobility Shift Assay (MSA); format: biochemical; conditions: 0.2 mM ATP, read-out: CDK4/ CyclinD1 MSA IC50
How it was run: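 Reaction: 2.5 nM enzyme, 0.2 mM ATP, 1.5 µM 5-FAM-Dyrktide, 10 mM MgCl2, 2 mM DTT, 2% DMSO, 50 mM HEPES pH 7.5. Inhibitor was preincubated 30 min at 22 °C, then the reaction ran 180 min before EDTA stop. Microfluidic separation of substrate and product gave % conversion, and IC50 came from a 4-parameter fit.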

CDK6/Cyclin D3 = CDK6/Cyclin D3 (Homo sapiens (Human), UniProt Q00534); experiment: CDK6/Cyclin D3 ADP-Glo Kinase Assay; format: biochemical; conditions: 100 uM ATP, read-out: CDK6/ CyclinD3 IC50
How it was run: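 Recombinant human CDK6/Cyclin D3 pre-incubated 30 min with inhibitor at room temperature, then reaction started with ATP/substrate and run 90 min at room temperature. ADP formed detected by ADP-Glo luminescence; IC50 from a 4-parameter fit of fractional velocity versus inhibitor concentration.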

OVCAR-3 cells = experiment: Cell Growth Inhibition, OVCAR-3 (CellTiterGlo, 6 days); format: cell-based; conditions: OVCAR-3, 6-day treatment, CellTiterGlo 2.0
How it was run: (§1)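 MCF-7 and OVCAR-3 cells (RPMI, 10% FBS) were seeded at 500 cells/well onto compound, typically 10–10,000 nM in half-log dilutions. Growth proceeded 6 days at 37 °C, then CellTiterGlo luminescence was read. % inhibition was taken versus control, and IC50 came from a four-parameter variable-slope fit.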

CDK1/Cyclin B1 = CDK1/Cyclin B1 (Homo sapiens (Human), UniProt P06493); experiment: CDK1/Cyclin B1 ADP-Glo Kinase Assay; format: biochemical; conditions: 80 uM ATP
How it was run: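 CDK1/cyclin B1 (4.917 nM) preincubated 30 min with inhibitor (2% DMSO), then 80 µM ATP (Km 78.6 µM) and 0.75 µM substrate added; 90 min, room temperature, pH 7.5. ADP measured by ADP-Glo luminescence; IC50 from 4-parameter fit.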

MCF-7 cells = experiment: Cell Growth Inhibition, MCF-7 (CellTiterGlo, 6 days); format: cell-based; conditions: MCF-7, 6-day treatment, CellTiterGlo 2.0
How it was run: as §1

[1] = molecular target: CDK2/Cyclin E1 full length (Homo sapiens (Human), UniProt P24941); experiment: CDK2/Cyclin E1 Full Length ADP-Glo Kinase Assay; format: biochemical; conditions: 20 uM ATP, read-out: CDK2/ CyclinE1 IC50
How it was run: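 Full-length human CDK2/Cyclin E1 (0.328 nM) pre-incubated 30 min with inhibitor at RT, then reacted 90 min at RT with 20 uM ATP (Km 64.78 uM) and 0.75 uM substrate in pH 7.5 HEPES, 2% DMSO. ADP measured by ADP-Glo luminescence; IC50 from 4-parameter fit of fractional velocity.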

Chain of CDK6/Cyclin D3 (Q00534 whole entry): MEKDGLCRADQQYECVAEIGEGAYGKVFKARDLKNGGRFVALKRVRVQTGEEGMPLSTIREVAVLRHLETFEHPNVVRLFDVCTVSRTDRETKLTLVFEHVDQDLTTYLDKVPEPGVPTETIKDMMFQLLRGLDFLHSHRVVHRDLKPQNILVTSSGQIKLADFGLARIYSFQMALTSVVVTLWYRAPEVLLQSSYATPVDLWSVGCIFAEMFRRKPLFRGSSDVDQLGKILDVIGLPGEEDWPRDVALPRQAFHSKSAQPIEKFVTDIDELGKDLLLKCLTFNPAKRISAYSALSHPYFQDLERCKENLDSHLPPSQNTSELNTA
Chain of CDK6/Cyclin D3 (P30281 whole entry partner): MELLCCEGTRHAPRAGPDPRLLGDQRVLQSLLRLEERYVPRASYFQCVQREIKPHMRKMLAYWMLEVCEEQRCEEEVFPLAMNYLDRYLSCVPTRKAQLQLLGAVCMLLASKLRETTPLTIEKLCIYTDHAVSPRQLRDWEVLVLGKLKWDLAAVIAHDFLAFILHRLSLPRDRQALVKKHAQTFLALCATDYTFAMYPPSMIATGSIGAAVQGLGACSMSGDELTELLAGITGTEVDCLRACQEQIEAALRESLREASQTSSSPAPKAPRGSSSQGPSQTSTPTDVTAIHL
Chain of CDK4/Cyclin D1 (P11802 whole entry): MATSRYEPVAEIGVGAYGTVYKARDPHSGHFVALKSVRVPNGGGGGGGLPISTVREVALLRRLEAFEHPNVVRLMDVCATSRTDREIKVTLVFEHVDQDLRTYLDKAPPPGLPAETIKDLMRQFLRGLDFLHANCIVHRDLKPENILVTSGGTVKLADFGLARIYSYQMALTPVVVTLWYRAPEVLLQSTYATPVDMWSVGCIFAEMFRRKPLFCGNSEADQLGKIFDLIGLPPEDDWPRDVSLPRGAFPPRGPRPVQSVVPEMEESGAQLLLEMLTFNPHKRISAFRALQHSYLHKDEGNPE
Chain of CDK4/Cyclin D1 (P24385 whole entry partner): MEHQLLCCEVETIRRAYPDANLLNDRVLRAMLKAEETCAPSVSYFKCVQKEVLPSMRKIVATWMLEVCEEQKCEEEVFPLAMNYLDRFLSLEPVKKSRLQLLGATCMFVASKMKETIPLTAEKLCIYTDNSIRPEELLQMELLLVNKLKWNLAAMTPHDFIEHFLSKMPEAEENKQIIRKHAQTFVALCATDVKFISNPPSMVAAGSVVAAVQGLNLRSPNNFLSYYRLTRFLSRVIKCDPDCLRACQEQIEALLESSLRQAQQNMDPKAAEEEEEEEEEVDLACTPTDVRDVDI
Chain of CDK1/Cyclin B1 (P06493 whole entry): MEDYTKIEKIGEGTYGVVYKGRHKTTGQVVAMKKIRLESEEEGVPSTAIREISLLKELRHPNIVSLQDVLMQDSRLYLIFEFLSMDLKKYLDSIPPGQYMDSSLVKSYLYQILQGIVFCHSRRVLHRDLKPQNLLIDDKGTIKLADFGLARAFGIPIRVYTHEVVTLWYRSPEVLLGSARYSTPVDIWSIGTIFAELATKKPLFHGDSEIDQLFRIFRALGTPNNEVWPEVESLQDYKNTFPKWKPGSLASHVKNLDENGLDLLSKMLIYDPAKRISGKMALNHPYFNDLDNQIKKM
Chain of CDK1/Cyclin B1 (P14635 whole entry partner): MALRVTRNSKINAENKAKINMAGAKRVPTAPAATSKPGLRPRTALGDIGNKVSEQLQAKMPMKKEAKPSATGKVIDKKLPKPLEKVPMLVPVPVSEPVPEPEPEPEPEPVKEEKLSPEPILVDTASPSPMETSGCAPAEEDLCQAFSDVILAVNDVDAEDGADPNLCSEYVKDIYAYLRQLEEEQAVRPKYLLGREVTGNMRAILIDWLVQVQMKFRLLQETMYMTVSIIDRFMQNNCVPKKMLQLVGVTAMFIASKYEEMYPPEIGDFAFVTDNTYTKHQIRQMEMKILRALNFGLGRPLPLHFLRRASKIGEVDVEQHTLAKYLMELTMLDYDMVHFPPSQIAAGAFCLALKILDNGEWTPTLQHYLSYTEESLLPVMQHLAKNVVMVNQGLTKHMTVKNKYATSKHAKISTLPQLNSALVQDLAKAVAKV

SMILES	IC50 (CDK4/Cyclin D1) [nM]	IC50 (CDK6/Cyclin D3) [nM]	IC50 (OVCAR-3 cells; Homo sapiens, 144 h) [nM]	IC50 (CDK1/Cyclin B1) [nM]	IC50 (MCF-7 cells; Homo sapiens, MCF7, 144 h) [nM]	IC50 [1] [nM]	IC50 (OVCAR-3 cells) [nM]	IC50 (MCF-7 cells) [nM]
COCCN1CC2(CCN(c3cccc4cnc(Nc5ccc(N6CC7(COC7)C6)cn5)nc34)C2)C1 [Example 43, N-(5-(2-oxa-6-azaspiro[3.3]heptan-6-yl)pyridin-2-yl)-8-(2-(2-methoxyethyl)-2,6-diazaspiro[3.4]octan-6-yl)quinazolin-2-amine]	200 to 500	500 to 2000	> 2000	> 2000	500 to 2000	> 2000	–	–
CC(=O)N1CCC2(CCN(c3c(F)ccc4cnc(NC5CCN(S(C)(=O)=O)CC5)nc34)C2)C1 (stereo not drawn) [Example 45, 1-(7-(7-fluoro-2-((1-(methylsulfonyl)piperidin-4-yl)amino)quinazolin-8-yl)-2,7-diazaspiro[4.4]nonan-2-yl)ethan-1-one]	< 200	< 200	> 2000	500 to 2000	> 2000	< 200	–	–
CCN1CC2(C1)CN(c1ccc(Nc3ncc4cccc(N5CCC6(CCN(C(C)=O)C6)C5)c4n3)nc1)C2 (stereo not drawn) [Example 46, 1-(7-(2-((5-(6-ethyl-2,6-diazaspiro[3.3]heptan-2-yl)pyridin-2-yl)amino)quinazolin-8-yl)-2,7-diazaspiro[4.4]nonan-2-yl)ethan-1-one]	< 200	200 to 500	> 2000	> 2000	500 to 2000	> 2000	–	–
CC(=O)N1CCC2(CCN(c3cccc4cnc(Nc5ccc(N6CC7(C6)CC(F)(F)C7)cn5)nc34)C2)C1 (stereo not drawn) [Example 47, 1-(7-(2-((5-(6,6-difluoro-2-azaspiro[3.3]heptan-2-yl)pyridin-2-yl)amino)quinazolin-8-yl)-2,7-diazaspiro[4.4]nonan-2-yl)ethan-1-one]	200 to 500	200 to 500	> 2000	> 2000	> 2000	> 2000	–	–
CCN1CC2(C1)CN(c1ccc(Nc3ncc4cccc(N5CC6(CC(O)C6)C5)c4n3)nc1)C2 [Example 48, 2-(2-((5-(6-ethyl-2,6-diazaspiro[3.3]heptan-2-yl)pyridin-2-yl)amino)quinazolin-8-yl)-2-azaspiro[3.3]heptan-6-ol]	< 200	< 200	> 2000	> 2000	500 to 2000	> 2000	–	–
CC(=O)N1CCC2(CCN(c3cc(C(F)F)cc4cnc(NC5CCN(S(C)(=O)=O)CC5)nc34)C2)C1 (stereo not drawn) [Example 50, 1-(7-(6-(difluoromethyl)-2-((1-(methylsulfonyl)piperidin-4-yl)amino)quinazolin-8-yl)-2,7-diazaspiro[4.4]nonan-2-yl)ethan-1-one]	< 200	< 200	> 2000	200 to 500	500 to 2000	< 200	–	–
CC(=O)N1CCC2(CCN(c3cc(C(F)F)cc4cnc(Nc5ccc(N6CCN(C)CC6)cc5)nc34)C2)C1 (stereo not drawn) [Example 51, 1-(7-(6-(difluoromethyl)-2-((4-(4-methylpiperazin-1-yl)phenyl)amino)quinazolin-8-yl)-2,7-diazaspiro[4.4]nonan-2-yl)ethan-1-one]	< 200	< 200	500 to 2000	> 2000	500 to 2000	500 to 2000	–	–
CC(=O)N1CCC2(CCN(c3cc(C(F)F)cc4cnc(Nc5cnn(C(C)C)c5)nc34)C2)C1 (stereo not drawn) [Example 52, 1-(7-(6-(difluoromethyl)-2-((1-isopropyl-1H-pyrazol-4-yl)amino)quinazolin-8-yl)-2,7-diazaspiro[4.4]nonan-2-yl)ethan-1-one]	< 200	500 to 2000	500 to 2000	500 to 2000	200 to 500	500 to 2000	–	–
FC(F)c1cc(N2CCC3(C2)CC3(F)F)c2nc(NC3[C@H]4CNC[C@@H]34)ncc2c1 (stereo partly drawn) [Example 53, 8-(1,1-difluoro-5-azaspiro[2.4]heptan-5-yl)-6-(difluoromethyl)-N-((1R,5S,6s)-3-azabicyclo[3.1.0]hexan-6-yl)quinazolin-2-amine]	< 200	< 200	–	> 2000	–	> 2000	> 2000	500 to 2000
CN1C[C@@H]2[C@H](C1)[C@H]2Nc1ncc2cc(C(F)F)cc(N3CCC4(C3)CS(=O)(=O)C4)c2n1 [Example 54, 6-(6-(difluoromethyl)-2-(((1R,5S,6s)-3-methyl-3-azabicyclo[3.1.0]hexan-6-yl)amino)quinazolin-8-yl)-2-thia-6-azaspiro[3.4]octane 2,2-dioxide]	< 200	200 to 500	–	> 2000	–	> 2000	> 2000	> 2000
CN1CC2(CCC1=O)CCN(c1cccc3cnc(NC4CCN(S(C)(=O)=O)CC4)nc13)C2 (stereo not drawn) [Example 55, 7-methyl-2-(2-((1-(methylsulfonyl)piperidin-4-yl)amino)quinazolin-8-yl)-2,7-diazaspiro[4.5]decan-8-one]	200 to 500	500 to 2000	> 2000	> 2000	> 2000	500 to 2000	–	–
